Laboratory results reported in patent US10828578B2, “Reversible control of solution solubility using functionalized nanoparticles” (Massachusetts Institute of Technology, priority 2016, dated 2020).
Converted amounts (≈) assume the structure as drawn. Each block holds one compound with its values, some of them ahead of it.

Experiments:
physchem [1] = details: water
Experimental: The method development involved the study of methanol and acetonitrile as organic modifiers, pH and flow-rate using a Chromolith RP-18e (150 mm×4.6 mm I.D.) column. After comparing the performance the optimum analysis of these compounds was achieved using 50 mM acetate buffer (pH 5.0)-acetonitrile (80:20, v/v) as mobile phase, 1 mL min-1 flow-rate and UV detection at maximum absorbance wavelength of 250 nm.

[2] = Solubility enhancement in water with glycolic acid functionalized iron oxide nanoparticles (HPLC); details: 2 ml suspension 20 g/L in water + 200 mg glycolic acid IONPs; part converted to 4-aminophenol
Experimental: The clear solution was analyzed using HPLC in order to determine the final concentration.

[3] = Solubility and metastable zone width of D-mannitol in water and water-ethanol mixtures (Crystal16); type: physicochemical; details: with an increase in the amount of ethanol (85-15, 75-25, 50-50% wt/wt water-ethanol)
From the text: According to the results of D-mannitol in water and water-ethanol mixtures, the solubility decreases with an increase in the amount of ethanol in water-ethanol mixtures. In order to know the required amount of functionalized nanoparticles and the operating region for crystallization, the MSZW of D-mannitol is important. For the samples of D-mannitol in the mixtures of 85-15 and 75-25% wt/wt of water-ethanol, the cloud point lies above the saturation temperature of D-mannitol in pure water. This means that, for the mixtures of 85-15 and 75-25% water-ethanol, and the solutes with a concentration of 193 mg/ml at 20° C., spontaneous nucleation will not occur because they will remain in solution. However, these experiments helped to determine the optimum operating supersaturation levels as well as the amount of antisolvent required to crystallize compounds at a given concentration. […]
The solubility and metastable zone width (MSZW) of D-mannitol was measured in pure DI water and DI water-ethanol mixtures at different concentrations by adding a known amount of D-mannitol and 1 mL of solvent or solvent mixtures respectively to a 1.5 mL glass vial. […] The temperature at which the suspension turned into a clear solution was recorded and assumed to be the saturation temperature. […] The temperatures at which the crystals are detected are assumed to be a cloud point. […]

physchem [4] = details: water, thermodynamic from solid
Experimental: A saturated solution of ibuprofen in water was prepared at room temperature. […] An additional 20 mg of ibuprofen was added to 5 mL of the saturated solution. Then, 200 mg of iron oxide nanoparticles that had been functionalized with glycolic acid were added and mixed. Clear samples of solution were then taken from the slurry and analyzed with HPLC.

[5] = NaCl concentration change in water after crystallization with functionalized gold nanoparticles (digital density meter); type: physicochemical; details: 1.8 nm gold nanoparticles with ethanol group, seeded, 16 hour stirring
From the text: The antisolvent crystallization of NaCl is the best example of the influence of agglomeration on the final product purity. Though the crystals are crystallized from a mother liquor containing as much as 50% weight antisolvent (on a solvent basis), the uptake of the antisolvent is as low as 30 ppm. In the present study, functionalized nanoparticles were used to crystallize NaCl from a water solution. NaCl is highly soluble in water and slightly soluble in ethanol. In the case of NaCl crystallization, water was used as a solvent and ethanol was used as an antisolvent. NaCl was crystallized in water using 1.8 nm functionalized nanoparticles with an ethanol group at the open terminal. […] After 4 hours the sample was seeded with NaCl crystals and the sample was crystallized only after 16 hour of stirring. The initial and final concentration of NaCl was measured using the Digital Density Meter DMA4500. This instrument is used for accurate measurements of solvent density necessary for the concentration measurements. […] The change in concentration after crystallization measured using the digital density meter was 27 mg.

Structure (SMILES): O=[N+]([O-])c1ccc(O)cc1 [4-nitrophenol]
- solubility thermodynamic at 24 h (physchem [1]; 20 °C, thermodynamic from solid): 13 mg/mL (≈ 93.5 mM)
- solubility at 24 h (physchem [1]; 25 °C): 13 mg/mL (≈ 93.5 mM)
- concentration in clear solution after IONP addition [2]: 16.5 g/L

- solubility of D-mannitol in water-ethanol mixtures [3]: decreases
Structure (SMILES): OC[C@@H](O)[C@@H](O)[C@H](O)[C@H](O)CO [D-mannitol]

- solubility (physchem [4]): 9 µg/mL (≈ 0.0436 mM)
Structure (SMILES): CC(C)Cc1ccc(C(C)C(=O)O)cc1 (stereo not drawn) [ibuprofen]

Structure (SMILES): [Cl-].[Na+] [NaCl, Sodium chloride]
- change in concentration after crystallization [5]: 27 mg
